Experimental data reported in ChEMBL document CHEMBL1201862, “PubChem BioAssay data set” (2004).
Activity calls are given as the source filed them.

Columns and labels:
[1] = tested on: Streptococcus sp. 'group A'; test: growth inhibition of control SK(-) GAS strain, dose response, counter-screen for streptokinase expression inhibitor project, luminescence, kanamycin, BacTiterGlo, confirmation (AID 1900); assay type: functional, organism-based
SUMO-activating enzyme [2] = molecular target: T1, SUMO-activating enzyme (Homo sapiens, UniProt Q9UBT2); test: SUMOylation inhibitor hit validation, confirmation, SUMOylation inhibitor project, biochemical, AlphaScreen (AID 2018); assay type: functional
Streptokinase A = molecular target: T2, Streptokinase A (Streptococcus pyogenes serotype M1, UniProt P10520); test: S. pyogenes streptokinase expression inhibitors, potency, dose response, plasminogen activation absorbance, OD405 (AID 1914); assay type: functional, Streptococcus pyogenes M1 GAS;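 note: secreted streptokinase activity via plasminogen activation per viability signal from cell pellet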
T2 sequence (P10520 whole entry): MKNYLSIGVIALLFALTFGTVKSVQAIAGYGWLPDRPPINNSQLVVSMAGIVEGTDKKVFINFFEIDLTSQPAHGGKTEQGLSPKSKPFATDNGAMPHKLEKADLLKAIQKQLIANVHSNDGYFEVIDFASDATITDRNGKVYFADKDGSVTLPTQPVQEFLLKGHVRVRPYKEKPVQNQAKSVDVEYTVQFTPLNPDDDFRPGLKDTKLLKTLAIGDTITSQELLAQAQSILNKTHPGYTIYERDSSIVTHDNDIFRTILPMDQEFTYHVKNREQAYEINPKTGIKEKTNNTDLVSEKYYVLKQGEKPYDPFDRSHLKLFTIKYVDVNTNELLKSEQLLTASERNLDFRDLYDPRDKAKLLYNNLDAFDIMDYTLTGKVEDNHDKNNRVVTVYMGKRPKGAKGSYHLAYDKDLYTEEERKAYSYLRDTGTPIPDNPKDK

SUMO-activating enzyme [3] = molecular target: T1, SUMO-activating enzyme; test: inhibitors of in vitro SUMOylation cascade, primary screen, biochemical, HTRF, uHTS (AID 2006); assay type: protein-complex assay
Streptococcus = test: Group A Streptococcus viability loss, dose response, counter-screen for streptokinase expression inhibitor project, luminescence, BacTiterGlo (AID 1915); assay type: functional, organism-based;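 note: potency for reduction of bacterial viability or growth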
[4] = molecular target: 26S proteasome non-ATPase regulatory subunit 14 (Homo sapiens, UniProt O00487); test: inhibition of proteasome subunit RPN11 – biochemical, fluorescence polarization, uHTS hits, confirmation (AID 602368); assay type: functional
[5] = molecular target: 72 kDa type IV collagenase (Homo sapiens, UniProt P08253); test: Dose Response validation of uHTS RPN11 inhibitor hits using a MMP-2 Fluorescence assay.; assay type: functional
Prothrombin = Prothrombin (Bos taurus, UniProt P00735); test: thrombin inhibition, dose response, biochemical, fluorescence polarization, uHTS hits (AID 602369); assay type: functional
[6] = molecular target: T3, Small ubiquitin-related modifier 1 (Homo sapiens, UniProt P63165); test: inhibitors of SUMO1 peptide binding, dose response, biochemical, fluorescence polarization, uHTS hits (AID 624382); assay type: functional; conditions: read-out: IC50_Mean
[7] = molecular target: T3, Small ubiquitin-related modifier 1; test: inhibitors of SUMO1 partner interactions, dose response, biochemical, FRET (AID 624383); assay type: functional; conditions: read-out: IC50_Mean
[8] = molecular target: Glycogen synthase kinase-3 alpha (Homo sapiens, UniProt P49840); test: Inhibition of Human GSK-3 alpha Activity Measured in Biochemical System Using Microfluidics - 2063-06_Inhibitor_Dose_DryPowder_Activity. [Related pubchem assays (depositor defined):AID2709]
[9] = molecular target: Glycogen synthase kinase-3 beta (Homo sapiens, UniProt P49841); test: Inhibition of Human GSK-3 beta Activity Measured in Biochemical System Using Microfluidics - 2063-05_Inhibitor_Dose_DryPowder_Activity. [Related pubchem assays (depositor defined):AID2709]
INS1 = test: protection from cytokine-induced mitochondrial depolarization, dose response, cell-based, INS-1E, JC-1 fluorescence ratio, dry powder (AID 488931); assay type: functional; conditions: Rattus norvegicus
[10] = molecular target: Multidrug resistance protein CDR2 (Candida albicans (strain SC5314 / ATCC MYA-2876) (Yeast), UniProt P78595); test: CaCDR2 efflux pump inhibitors in yeast, dose response, S. cerevisiae AD1-8u, singleplex, Cherry Pick1 hits (AID 588604); assay type: functional
[11] = molecular target: Mitogen-activated protein kinase 8 (Homo sapiens, UniProt P45983); assay type: functional;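 note: value comes from one member of a kinome-wide kinase profiling panel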
[12] = molecular target: Dual specificity tyrosine-phosphorylation-regulated kinase 1B (Homo sapiens, UniProt Q9Y463); test: Navigating the Kinome. Panel member name: DYRK1B; assay type: functional
[13] = molecular target: Dual specificity protein kinase CLK4 (Homo sapiens, UniProt Q9HAZ1); assay type: functional
[14] = molecular target: Dual specificity tyrosine-phosphorylation-regulated kinase 1A (Homo sapiens, UniProt Q13627); assay type: functional;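 note: measured against DYRK1A as one member of a broad kinome profiling panel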
Aurora kinase A = Aurora kinase A (Homo sapiens, UniProt O14965); assay type: functional;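 note: value from the Navigating the Kinome kinase panel profiling, panel entry STK6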
Aurora kinase B = Aurora kinase B (Homo sapiens, UniProt Q96GD4); assay type: functional
[15] = molecular target: Cyclin-dependent kinase 19 (Homo sapiens, UniProt Q9BWU1); test: Navigating the Kinome. Panel member name: CDC2L6; assay type: functional
SRSF protein kinase 1 = SRSF protein kinase 1 (Homo sapiens, UniProt Q96SB4); assay type: functional;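 note: measured as one member of a kinome-wide kinase profiling panel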
[16] = molecular target: Serine/threonine-protein kinase PAK 1 (Homo sapiens, UniProt Q13153); assay type: functional
[17] = molecular target: Interleukin-1 receptor-associated kinase 4 (Homo sapiens, UniProt Q9NWZ3); assay type: functional
Interleukin-1 receptor-associated kinase 4, sequence (Q9NWZ3 whole entry): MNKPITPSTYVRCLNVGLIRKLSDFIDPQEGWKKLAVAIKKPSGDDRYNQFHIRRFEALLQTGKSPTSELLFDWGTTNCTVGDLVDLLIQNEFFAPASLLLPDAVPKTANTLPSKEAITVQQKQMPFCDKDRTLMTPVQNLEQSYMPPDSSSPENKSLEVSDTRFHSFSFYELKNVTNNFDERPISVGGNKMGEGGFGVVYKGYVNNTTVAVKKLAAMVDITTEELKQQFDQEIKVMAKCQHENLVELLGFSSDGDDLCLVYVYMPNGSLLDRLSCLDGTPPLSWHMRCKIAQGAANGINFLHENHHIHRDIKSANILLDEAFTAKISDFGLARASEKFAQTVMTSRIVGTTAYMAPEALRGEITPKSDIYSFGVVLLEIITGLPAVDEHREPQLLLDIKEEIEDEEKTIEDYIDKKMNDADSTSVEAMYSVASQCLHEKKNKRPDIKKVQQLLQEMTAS

T1 sequence (Q9UBE0 whole entry): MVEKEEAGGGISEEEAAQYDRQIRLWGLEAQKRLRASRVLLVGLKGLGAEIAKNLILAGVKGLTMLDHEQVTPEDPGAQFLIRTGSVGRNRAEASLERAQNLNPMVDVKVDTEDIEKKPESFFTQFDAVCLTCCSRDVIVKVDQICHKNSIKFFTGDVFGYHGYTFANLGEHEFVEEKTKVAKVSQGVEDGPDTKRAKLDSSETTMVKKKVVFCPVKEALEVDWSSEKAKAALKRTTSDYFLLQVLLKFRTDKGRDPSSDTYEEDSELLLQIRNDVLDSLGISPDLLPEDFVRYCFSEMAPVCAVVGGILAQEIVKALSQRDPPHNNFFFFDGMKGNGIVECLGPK
T1 sequence (Q9UBT2 whole entry): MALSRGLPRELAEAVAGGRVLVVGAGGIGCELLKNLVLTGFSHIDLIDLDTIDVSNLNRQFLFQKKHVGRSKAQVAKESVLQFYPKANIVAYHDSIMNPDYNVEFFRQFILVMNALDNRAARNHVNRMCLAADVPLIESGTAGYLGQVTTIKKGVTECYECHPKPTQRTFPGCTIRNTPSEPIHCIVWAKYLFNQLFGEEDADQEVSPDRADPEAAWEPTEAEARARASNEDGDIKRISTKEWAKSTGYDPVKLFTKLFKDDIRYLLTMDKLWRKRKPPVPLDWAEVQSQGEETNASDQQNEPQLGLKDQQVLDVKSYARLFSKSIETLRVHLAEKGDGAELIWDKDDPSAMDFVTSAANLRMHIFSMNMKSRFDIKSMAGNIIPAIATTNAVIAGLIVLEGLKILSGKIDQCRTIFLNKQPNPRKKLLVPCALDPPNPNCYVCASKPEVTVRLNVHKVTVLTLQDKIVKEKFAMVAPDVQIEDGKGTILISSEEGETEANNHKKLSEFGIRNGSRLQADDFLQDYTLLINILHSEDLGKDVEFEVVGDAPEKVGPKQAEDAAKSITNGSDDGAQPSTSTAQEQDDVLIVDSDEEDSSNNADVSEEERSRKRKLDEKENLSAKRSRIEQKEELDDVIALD
T3 sequence (P63165 whole entry): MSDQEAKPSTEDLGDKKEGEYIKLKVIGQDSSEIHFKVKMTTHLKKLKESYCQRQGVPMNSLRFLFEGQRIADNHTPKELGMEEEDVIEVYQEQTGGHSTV
72 kDa type IV collagenase, sequence (P08253 whole entry): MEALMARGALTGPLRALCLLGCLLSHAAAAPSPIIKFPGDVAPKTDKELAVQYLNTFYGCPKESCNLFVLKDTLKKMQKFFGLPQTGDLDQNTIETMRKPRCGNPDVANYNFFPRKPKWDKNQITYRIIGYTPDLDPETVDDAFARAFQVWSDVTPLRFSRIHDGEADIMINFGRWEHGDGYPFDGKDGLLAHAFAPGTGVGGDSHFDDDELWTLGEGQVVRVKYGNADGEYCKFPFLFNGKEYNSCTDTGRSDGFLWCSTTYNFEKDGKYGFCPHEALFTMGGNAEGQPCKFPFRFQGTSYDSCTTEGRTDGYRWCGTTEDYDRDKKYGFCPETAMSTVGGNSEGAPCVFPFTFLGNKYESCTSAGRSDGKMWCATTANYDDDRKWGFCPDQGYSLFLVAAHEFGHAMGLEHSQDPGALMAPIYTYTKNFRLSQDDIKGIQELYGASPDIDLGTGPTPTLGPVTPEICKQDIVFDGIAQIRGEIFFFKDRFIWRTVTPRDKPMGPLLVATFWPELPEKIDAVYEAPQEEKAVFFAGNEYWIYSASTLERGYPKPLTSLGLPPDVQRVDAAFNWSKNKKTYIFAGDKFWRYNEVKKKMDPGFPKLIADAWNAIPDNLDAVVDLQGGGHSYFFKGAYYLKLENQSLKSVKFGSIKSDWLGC
Glycogen synthase kinase-3 beta, sequence (P49841 whole entry): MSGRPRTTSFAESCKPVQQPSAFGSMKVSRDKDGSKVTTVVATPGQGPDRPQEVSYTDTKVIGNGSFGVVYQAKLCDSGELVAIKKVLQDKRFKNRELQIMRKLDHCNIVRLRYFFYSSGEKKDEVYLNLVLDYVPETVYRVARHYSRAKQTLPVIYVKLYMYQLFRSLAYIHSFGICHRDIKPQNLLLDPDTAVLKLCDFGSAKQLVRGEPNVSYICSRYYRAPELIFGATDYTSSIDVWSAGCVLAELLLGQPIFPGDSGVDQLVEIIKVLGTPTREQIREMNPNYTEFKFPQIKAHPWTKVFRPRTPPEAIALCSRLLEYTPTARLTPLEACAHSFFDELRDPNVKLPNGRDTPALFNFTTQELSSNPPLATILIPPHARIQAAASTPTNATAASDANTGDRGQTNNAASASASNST
Dual specificity protein kinase CLK4, sequence (Q9HAZ1 whole entry): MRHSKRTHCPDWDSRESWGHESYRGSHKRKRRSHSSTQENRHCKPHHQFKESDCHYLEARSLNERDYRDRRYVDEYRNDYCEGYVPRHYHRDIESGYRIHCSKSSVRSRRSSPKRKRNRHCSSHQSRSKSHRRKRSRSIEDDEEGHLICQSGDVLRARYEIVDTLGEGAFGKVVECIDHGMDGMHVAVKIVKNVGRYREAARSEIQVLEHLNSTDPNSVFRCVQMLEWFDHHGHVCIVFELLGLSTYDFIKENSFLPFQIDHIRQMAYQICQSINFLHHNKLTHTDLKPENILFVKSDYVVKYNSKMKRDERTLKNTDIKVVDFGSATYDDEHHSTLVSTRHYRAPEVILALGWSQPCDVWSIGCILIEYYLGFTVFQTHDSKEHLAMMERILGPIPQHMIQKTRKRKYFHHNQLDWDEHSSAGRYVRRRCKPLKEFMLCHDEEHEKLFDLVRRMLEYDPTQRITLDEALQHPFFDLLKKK
26S proteasome non-ATPase regulatory subunit 14, sequence (O00487 whole entry): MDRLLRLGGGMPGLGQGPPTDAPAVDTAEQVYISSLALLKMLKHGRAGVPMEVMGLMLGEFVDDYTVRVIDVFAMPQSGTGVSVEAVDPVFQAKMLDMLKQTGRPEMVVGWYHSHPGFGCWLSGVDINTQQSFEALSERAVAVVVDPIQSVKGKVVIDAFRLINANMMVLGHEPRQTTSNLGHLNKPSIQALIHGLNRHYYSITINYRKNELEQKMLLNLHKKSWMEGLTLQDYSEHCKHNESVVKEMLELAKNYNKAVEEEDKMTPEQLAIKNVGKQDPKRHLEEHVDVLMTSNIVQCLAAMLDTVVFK
Aurora kinase B, sequence (Q96GD4 whole entry): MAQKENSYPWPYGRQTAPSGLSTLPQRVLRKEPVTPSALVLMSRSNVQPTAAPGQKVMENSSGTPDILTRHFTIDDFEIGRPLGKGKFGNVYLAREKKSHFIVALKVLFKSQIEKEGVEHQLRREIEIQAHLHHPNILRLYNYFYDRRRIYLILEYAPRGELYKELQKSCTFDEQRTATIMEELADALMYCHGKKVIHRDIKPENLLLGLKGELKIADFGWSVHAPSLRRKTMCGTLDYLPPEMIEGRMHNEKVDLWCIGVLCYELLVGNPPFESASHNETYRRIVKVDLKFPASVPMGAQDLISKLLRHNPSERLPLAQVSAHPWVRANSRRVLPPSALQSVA
Aurora kinase A, sequence (O14965 whole entry): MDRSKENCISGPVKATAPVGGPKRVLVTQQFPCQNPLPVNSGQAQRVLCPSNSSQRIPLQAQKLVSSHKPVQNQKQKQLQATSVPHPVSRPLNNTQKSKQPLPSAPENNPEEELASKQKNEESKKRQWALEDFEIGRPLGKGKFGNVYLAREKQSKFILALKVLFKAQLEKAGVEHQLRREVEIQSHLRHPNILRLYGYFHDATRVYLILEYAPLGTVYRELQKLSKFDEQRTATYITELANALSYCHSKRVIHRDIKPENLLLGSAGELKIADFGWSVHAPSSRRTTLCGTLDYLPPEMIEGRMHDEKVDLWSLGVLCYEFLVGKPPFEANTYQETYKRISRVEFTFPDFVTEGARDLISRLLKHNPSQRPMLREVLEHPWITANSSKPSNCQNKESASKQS
Glycogen synthase kinase-3 alpha, sequence (P49840 whole entry): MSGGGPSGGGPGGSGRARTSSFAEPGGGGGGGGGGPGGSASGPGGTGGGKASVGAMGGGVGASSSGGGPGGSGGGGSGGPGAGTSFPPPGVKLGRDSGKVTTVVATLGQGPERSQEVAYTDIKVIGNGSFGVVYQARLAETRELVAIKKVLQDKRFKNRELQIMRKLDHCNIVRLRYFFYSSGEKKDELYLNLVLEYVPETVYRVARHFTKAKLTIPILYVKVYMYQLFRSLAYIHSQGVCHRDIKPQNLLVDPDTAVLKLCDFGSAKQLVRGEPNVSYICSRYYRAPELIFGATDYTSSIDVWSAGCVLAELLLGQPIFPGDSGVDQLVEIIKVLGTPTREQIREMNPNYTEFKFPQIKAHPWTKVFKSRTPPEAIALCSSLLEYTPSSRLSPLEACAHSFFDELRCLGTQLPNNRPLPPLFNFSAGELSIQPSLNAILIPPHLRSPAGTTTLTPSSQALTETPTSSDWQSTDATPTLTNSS

Sc1nnc(-c2cc(-c3ccccc3)[nH]n2)n1/N=C/c1ccc(Br)s1
EC50 [1]: 14.6 µM (active) | IC50 (SUMO-activating enzyme [2]): 6.99 µM (active) | EC50 (Streptokinase A): > 150 µM (not active) | IC50 (SUMO-activating enzyme [3]): 10.3 µM (active) | EC50 (Streptococcus): > 150 µM (not active) | IC50 [4]: 14.5 µM (active) | IC50 [5]: > 100 µM (inactive) | IC50 (Prothrombin): 32.9 µM (active) | IC50 [6]: > 66.6 µM (inactive) | IC50 [7]: 7.25 µM (active)

COc1ccc2nc(NC(=O)CCNC(=O)c3ccccc3Cl)sc2c1
AC50 [8]: 8.01 µM (active) | AC50 [9]: 1.53 µM (active)

COc1ccc(S(=O)(=O)Nc2cccc3c2O[C@@H](CN(C)S(=O)(=O)c2ccc(OC)cc2)[C@H](C)CN([C@@H](C)CO)C3=O)cc1
AC50 (INS1): 73.4 µM (active)

COc1cccc(-c2sc3ccc(OC)cc3c2-c2ccc(OCCN3CCCCC3)cc2)c1
EC50 [10]: 11.2 µM (active)

O=c1[nH]ccc2cnc(-c3ccccc3)n12
Ki [11]: 25.1 µM (active) | Ki [12]: 79.4 µM (active) | Ki [13]: 39.8 µM (active) | Ki [14]: 63.1 µM (active)

Cc1oc2ncnc(N)c2c1-c1ccc(NC(=O)Nc2cccc(C(F)(F)F)c2)cc1
Ki (Aurora kinase A): 79.4 nM (active) | Ki (Aurora kinase B): 12.6 nM (active) | Ki [15]: 3.98 µM (active)

Cc1ccc(C2(c3ccc(C)cc3)CC2C(=O)Nc2ccncc2)cc1 (centres undefined)
Ki (SRSF protein kinase 1): 2.51 µM (active) | Ki [16]: > 10 µM (inactive) | Ki [17]: > 10 µM (inactive)
